Data as given in patent US10144727B2, “Deoxynojirimycin derivatives and methods of their using” (priority 2013, dated 2018).
Entries after “also recorded” stand apart in the source; their conditions may differ.

Tests used:
[1] = tested on: influenza A/Texas/36/91 (H1N1); experiment: Efficacy of selected iminosugars in mice; Influenza A/Texas/36/91 (H1N1) challenge; assay type: in vivo, BALB/c mice; conditions: for Survival versus untreated/vehicle control group / Survival rate / MTD: 100 mg/kg oral TID for 10 days; for Survival rate / MTD: infected ~1 LD90
Experimental: (§1) Study Summary: This study analyzed the toxicity and efficacy of UV-8, UV-9, UV-10, UV-11, and UV-12 in mice during an H1N1 influenza infection. […] In the current study, we examined delivery doses of UV-4B. UV-8, UV-9, UV-10. UV-11 and UV-12 at 100 mg/kg, delivered ter in die by the oral route (intragastric via oral gavage or IG. Small groups (n=3) that were included to examine gross toxicity received 100 mg/kg of the iminosugars but without a viral challenge. UV-4B, UV-8. UV-9, UV-10. UV-11 or UV-12 was delivered to the animals starting at 1 hour before intranasal infection (IN) with ˜1 LD90 of influenza A/Texas/36/91 (H1N1). Animals were then treated TID for 10 days total (days 0-9 post infection). Efficacy was evaluated by comparing survival, temperature changes, and weight gain/loss to an infected untreated control group.
This study aimed to determine the efficacy of UV-8. UV-9, UV-10, UV-11, and UV-12 when administered orally at 100 mg/kg TID against a lethal intranasal infection with influenza virus A/Texas/36/91 (H1N1) in the BALB/c mouse model. In addition to the efficacy arm, each of the iminosugars was tested in a small group of animals with the same treatment regimen (100 mg/kg, oral gavage, TID) in the absence of a viral infection to examine gross toxicity of each analog (general health, weight, temperature, and mortality evaluations).
UV-8, -9, -10, -11, -12, and UV-4B were prepared in H2O at 20 mg/ml for a delivery dose of 100 mg/kg, assuming ˜20 g mice given 0.1 mL of compound. Groups of BALB/c mice were treated at one hour before (−1 h) intranasal infection with ˜1 LD90 of INFV A/Texas/36/91 (H1N1) and then compounds were administered three times daily for a total of 10 days (see Table 12 for study design summary). Weights, temperature, and survival were monitored and used for evaluation of protective efficacy and toxicity of each analog.
3. The groups of mice challenged with influenza were anesthetized with 5% Isofluorene and maintained at 2.5% prior to intranasal inoculation with ˜1 LD90 of INFV in 100 μL PBS.
1. Mice were treated starting at 1 hour before infection with 100 μL of compound in H2O (see Table 12 for dosing regimens) three times a day for 10 days total with 100 mg/kg of UV-4B, UV-8, UV-9, UV-10, UV-11, or UV-12 compound given by the oral route (intragastric via oral gavage). 2. After dosing, mice were returned to their cages and monitored for any distress related to dosing.
(§2) 1. Mice were observed through 13 days post infection (14 days total, 0-13 days post infection).
(§3) 2. Mice were weighed daily on an Ohause scale and the weights were recorded.
3. All animals had chips implanted that monitored the body temperature. The temperatures were recorded daily.
4. Survival and health of each mouse was evaluated three times a day using a scoring system of 1-7.
5. Mice were euthanized when scored at 5 or above (Very Sick; Very Rufftled Coat; Closed, inset eyes; Slow to no movement; Will return to upright position if put on its side; extremely lethargic).

[2] = tested on: influenza A/Texas/36/91 (H1N1); experiment: Efficacy of UV-12 and UV-28 against lethal INFV A/Texas/36/91 (H1N1) challenge in mice; assay type: in vivo, BALB/c mice; conditions: for % Survival / Mean Survival: ~1LD90 intranasal; for Health score recovery of infected mice: 100 mg/kg TID; for Weight recovery of infected mice: treated infected mice
Experimental: Study Summary: This study tested the ability of iminosugars UV-12 and UV-28 to protect mice from lethal influenza infection (˜1LD90 of influenza A/Texas/36/91 (H1N1) administered intranasally). Compounds were delivered 30-60 minutes prior to viral challenge via the oral (IG) route at 100 or 40 mg/kg and continued three times daily for 10 days. The mice used were ˜20 gram, 6-8 week old female BALB/c mice in groups of 10 for efficacy (a summary of the study groups is shown in Table 1). Temperature and weights were taken daily. Endpoint was day 14 post infection, death, or euthanasia. Animals displaying severe illness as determined by >30% weight loss, extreme lethargy, or paralysis were euthanized.
This study tested the ability of UV-12 and UV-28 to protect mice from lethal influenza infection. The mice used were 6-8 week old female BALB/c mice in groups of 10 (see Table 5 below). Mice were treated with 100 or 40 mg/kg three times daily (TID) via IG route starting approximately 30-60 minutes prior to challenge. Mice were challenged with ˜1 LD90 of influenza A/Texas/36/91 (H1N1) administered intranasally (IN). Endpoint was day 14 post infection, death, or euthanasia. Animals displaying severe illness as determined by >30% weight loss, extreme lethargy, or paralysis were euthanized. Temperature and weights were taken daily.
3. The groups of mice challenged with INFV were infected via intranasal (IN) inoculation with ˜1×LD90 in 100 μL of a 1:500 dilution of INFV in PBS under light anesthesia (Isoflurane).
1. Mice were treated with 100 or 40 mg/kg of test article given by the IG route in 100 μL of water (see Table 5 for dosing regimens) three times daily for 10 days.
as §2, §3
3. All animals had chips implanted at least 3 days prior to virus challenge that monitored the body temperature. The temperatures were recorded daily.
4. Survival and health of each mouse was evaluated once time a day using a scoring system of 1-7.
FIG. 1 is a plot presenting survival data of infected mice grouped by treatment. The survival data plotted in FIG. 1 were analyzed using the Mantel-Cox (Log rank) test in GraphPad Prism.

DENV2 Strain S221 = experiment: Survival analysis of UV-12 in A129 ADE model of dengue infection; assay type: in vivo, A129 mice; conditions: 100 mg/kg/dose orally 3x per day for 7 days, first dose 1 hr before IV challenge
From the text: Purpose: This study determined the efficacy of UV-12 in promoting survival of mice challenged with dengue virus. Compound were given by the oral route (3× per day intragastric via oral gavage—IG) for a total number of 7 days after the start of dosing. The experiment used the A129 ADE model of infection. (Prestwood T R, Morar M M, Zellweger R M, Miller R, May M M, Yauch L E, Lada S M. Shresta S. Gamma interferon (IFN-γ) receptor restricts systemic dengue virus replication and prevents paralysis in IFN-α/β receptor-deficient mice. J Virol. 2012 December; 86(23):12561-70.) Animals received the virus challenge dose ˜1 LD90 on day 0. The first dose was given 0.5-1 hr pre-virus challenge. Survival was measured until 30 days after infection.
Mice: Sex matched 5-6 weeks old A129 (129/SV IFN-α, -β receptor^−/−)
Iminosugar: Orally 3× day, (gavage (IG)) every 8 hours
Antibody and Iminosugar Compound were given simultaneously, then virus within 30 minutes
Antibody: 100 μg 2H2 (IgG2a anti-DENV1-4 prM) from ATCC, day 0 and day 1 in 40 ul
Virus: DENV2 Strain S221 (v512) (Zellweger R M, Prestwood T R, Shresta S.
Dose: 1E11 GE (genomic equivalents) per animal
Animal survival. Animals displaying severe illness (as determined by 20% weight loss, extreme lethargy, ruffled coat, or paralysis) are euthanized.
FIG. 5 presents results of this study. […]

[3] = 100 mg/kg oral TID; for Survival without a viral challenge: uninfected, n=3
H1N1 = experiment: Previous studies: oral UV-4B TID at 100 mg/kg against H1N1; assay type: in vivo; conditions: oral TID at 100 mg/kg
Experimental: as §1

| SMILES | Survival versus untreated/vehicle control group [1] | Survival rate [1] | Survival without a viral challenge [3] | MTD [1] | further results |
| --- | --- | --- | --- | --- | --- |
| OCC1C(O)C(O)C(O)CN1CCCCCCCCC1CCCO1 (mixture of isomers) [UV-12] | significant increase in survival | 90% | 100% |  | Overall temperature and weight versus vehicle control ([1]; 100 mg/kg oral TID, infected mice): significant increases in overall temperature and weight; % Survival ([2]; 40 mg/kg TID IG for 10 days): 20%; Mean Survival ([2]; 40 mg/kg TID IG for 10 days): 9 days; % Survival ([2]; 100 mg/kg TID IG for 10 days): 100%; Mean Survival ([2]; 100 mg/kg TID IG for 10 days): >13 days; Health score recovery of infected mice ([2]; FIG. 4): fully recovered from the infection and returned to normal; Weight recovery of infected mice [2]: almost completely recovered; Survival compared to control animals (DENV2 Strain S221): increased survival; Recovery after dosing regimen completed, uninfected mice [3]: able to fully recover; Toxicity in the uninfected group [3]: mild toxicity with steady weight loss; Weight loss overall in uninfected mice [3]: ≤ 10% |
| COCCCCCCCCCN1C[C@H](O)[C@@H](O)[C@H](O)[C@H]1CO [UV-4B, N-9-methoxynonyl-deoxynojirimycin, reference compound] | significant increase in survival | 100% |  |  | Efficacy against H1N1 (H1N1): resulted in efficacy; Signs of toxicity (H1N1): did not show any discernible signs of toxicity |
| COCCCCCCCCC(=O)N1C[C@H](O)[C@@H](O)[C@H](O)[C@H]1CO [UV-8] | did not show any improvement in survival; also recorded: no significant difference from the vehicle control group | 30% | 100% | 10.5 days |  |
| COCCCCCCCOC(=O)N1C[C@H](O)[C@@H](O)[C@H](O)[C@H]1CO [UV-9] | did not show any improvement in survival | 0% | 100% | 7 days |  |
| COC(=O)CCCCCCCCN1C[C@H](O)[C@@H](O)[C@H](O)[C@H]1CO [UV-10] | did not show any improvement in survival | 0% | 100% | 7.5 days |  |
| OCCCCCCCCCN1C[C@H](O)[C@@H](O)[C@H](O)[C@H]1CO [UV-11] | did not show any improvement in survival | 0% | 100% | 8 days |  |
| COC(C)(C)CCCCCCCCN1C[C@H](O)[C@@H](O)[C@H](O)[C@H]1CO [UV-28] |  |  |  |  | % Survival ([2]; 40 mg/kg TID IG for 10 days): 60%; Mean Survival ([2]; 40 mg/kg TID IG for 10 days): >13 days; % Survival ([2]; 100 mg/kg TID IG for 10 days): 100%; Mean Survival ([2]; 100 mg/kg TID IG for 10 days): >13 days; Health score recovery of infected mice ([2]; FIG. 4): never recovered their health score; Toxicity compared (health scores) ([2]; FIG. 4): more toxic than UV-12; Weight recovery of infected mice [2]: did not recover their weight as well |
